# Test results published in patent US20060057133A1, “Topical pathogenic-tissue-destroying liquid” (priority 2002, published 2006).
# Legend:
# diseased tissue = experiment: topical application of acids, enzymes and the topical liquid to skin, mucous membranes and diseased tissue; settings: for aggressiveness toward the skin and mucous membranes / tissues: topical use while selecting components of the mixture
# Description: The topical liquid or aqueous composition is composed of substances such as nitric acid and enzymes, mucins and ptyalin which are combined to form an aqueous pharmaceutical composition which is applied to the infected tissues and selectively attacks the cells of the diseased tissue or tumour. This composition is applied to the tissues which are to be eliminated, in dabs which are applied using a cotton swab moistened with the topical liquid that destroys the pathogenic tissue. It is applied to the diseased tissue as necessary, until the tissue changes colour and a small clear or pink halo appears round the treated tissue. The site is then washed with clean water. When applied to the mucous membranes, washing after application of the pathogenic-tissue destroying topical liquid is not necessary. […] However, this sometimes depends on the sensitivity of the individual (only individuals who have a tendency to form keloid scars will be left with a slight sign).
# [1] = tested on: herpes simplex virus type 1; settings: 4 mM, cited from earlier work
Compound,aggressiveness toward the skin and mucous membranes / tissues (diseased tissue),other results
O=[N+]([O-])O [Nitric acid],least aggressive,–
O=C(O)CC(O)(CC(=O)O)C(=O)O [citric acid],–,coagulation of the diseased tissue (diseased tissue; topical application): did not succeed in coagulating the diseased tissue
O=C(O)C(O)CO (stereo not drawn) [glyceric acid],–,synthesis of glycoproteins in normal cells ([1]; normal cells): slightly affected; production of the virus inhibited [1]: 99%
Cl [hydrochloric acid],too aggressive,–
"O=S(=O)(O)O [sulphuric, sulphuric acid]",too aggressive,–
